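Each compound was tested at five concentrations against cells in 96-well plates for 48 hours. At the GI50, growth is halved.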 Active and inactive are the calls of the source. No stated cut-off is given here; in the data, active = GI50 up to about 1.1 µM and inactive = higher.
How the values were obtained:
Assay in all cases: NCI-60 cell line screen, 48 h
MCF7 = tested on: MCF7
NCI-H23 = tested on: NCI-H23
MDA-MB-435 = tested on: MDA-MB-435
SNB-19 = tested on: SNB-19
K562 = tested on: K562
A549 = tested on: A549
SF-539 = tested on: SF-539
SK-MEL-2 = tested on: SK-MEL-2
BT-549 = tested on: BT-549
MDA-N = tested on: MDA-N
SW-620 = tested on: SW-620
UACC-62 = tested on: UACC-62
HCT-116 = tested on: HCT-116
NCI-H460 = tested on: NCI-H460
OVCAR-3 = tested on: OVCAR-3
MOLT-4 = tested on: MOLT-4
OVCAR-8 = tested on: OVCAR-8
HOP-92 = tested on: HOP-92
SK-MEL-5 = tested on: SK-MEL-5
SK-OV-3 = tested on: SK-OV-3
SF-295 = tested on: SF-295
HCC 2998 = tested on: HCC 2998
DU-145 = tested on: DU-145
RXF 393 = tested on: RXF 393
CCRF-CEM = tested on: CCRF-CEM
UO-31 = tested on: UO-31
COLO 205 = tested on: COLO 205
SNB-75 = tested on: SNB-75
MDA-MB-231 = tested on: MDA-MB-231
TK-10 = tested on: TK-10
RPMI-8226 = tested on: RPMI-8226
786-0 = tested on: 786-0
IGROV-1 = tested on: IGROV-1
OVCAR-5 = tested on: OVCAR-5
LOX IMVI = tested on: LOX IMVI
HCT-15 = tested on: HCT-15
HOP-62 = tested on: HOP-62
ACHN = tested on: ACHN
EKVX = tested on: EKVX
SK-MEL-28 = tested on: SK-MEL-28
NCI/ADR-RES = tested on: NCI/ADR-RES
NCI-H226 = tested on: NCI-H226
U-251 = tested on: U-251
KM12 = tested on: KM12
SN12C = tested on: SN12C
CAKI-1 = tested on: CAKI-1
PC-3 = tested on: PC-3
Malme-3M = tested on: Malme-3M
UACC-257 = tested on: UACC-257
T47D = tested on: T47D
M14 = tested on: M14
HT-29 = tested on: HT-29
OVCAR-4 = tested on: OVCAR-4
NCI-H522 = tested on: NCI-H522
SF-268 = tested on: SF-268
HL-60 = tested on: HL-60
Hs-578T = tested on: Hs-578T
A498 = tested on: A498

CCn1cnc2c(NC(C)=O)ncnc21
GI50 (MCF7): > 100 µM (inactive) | GI50 (NCI-H23): > 100 µM (inactive) | GI50 (MDA-MB-435): > 100 µM (inactive) | GI50 (SNB-19): > 100 µM (inactive) | GI50 (K562): > 100 µM (inactive) | GI50 (A549): > 100 µM (inactive) | GI50 (SF-539): > 100 µM (inactive) | GI50 (SK-MEL-2): > 100 µM (inactive) | GI50 (BT-549): > 100 µM (inactive) | GI50 (MDA-N): > 100 µM (inactive) | GI50 (SW-620): > 100 µM (inactive) | GI50 (UACC-62): > 100 µM (inactive) | GI50 (HCT-116): > 100 µM (inactive) | GI50 (NCI-H460): > 100 µM (inactive) | GI50 (OVCAR-3): > 100 µM (inactive) | GI50 (MOLT-4): > 100 µM (inactive) | GI50 (OVCAR-8): > 100 µM (inactive) | GI50 (HOP-92): > 100 µM (inactive) | GI50 (SK-MEL-5): > 100 µM (inactive) | GI50 (SK-OV-3): > 100 µM (inactive) | GI50 (SF-295): > 100 µM (inactive) | GI50 (HCC 2998): > 100 µM (inactive) | GI50 (DU-145): > 100 µM (inactive) | GI50 (RXF 393): > 100 µM (inactive) | GI50 (CCRF-CEM): > 100 µM (inactive) | GI50 (UO-31): > 100 µM (inactive) | GI50 (COLO 205): > 100 µM (inactive) | GI50 (SNB-75): 1.33 µM (inactive) | GI50 (MDA-MB-231): > 100 µM (inactive) | GI50 (TK-10): > 100 µM (inactive) | GI50 (RPMI-8226): > 100 µM (inactive) | GI50 (786-0): > 100 µM (inactive) | GI50 (IGROV-1): > 100 µM (inactive) | GI50 (OVCAR-5): > 100 µM (inactive) | GI50 (LOX IMVI): > 100 µM (inactive) | GI50 (HCT-15): > 100 µM | GI50 (HOP-62): > 100 µM (inactive) | GI50 (ACHN): > 100 µM (inactive) | GI50 (EKVX): > 100 µM (inactive) | GI50 (SK-MEL-28): > 100 µM (inactive) | GI50 (NCI/ADR-RES): > 100 µM (inactive) | GI50 (NCI-H226): > 100 µM (inactive) | GI50 (U-251): > 100 µM (inactive) | GI50 (KM12): > 100 µM (inactive) | GI50 (SN12C): > 100 µM (inactive) | GI50 (CAKI-1): > 100 µM (inactive) | GI50 (PC-3): > 100 µM (inactive) | GI50 (Malme-3M): > 100 µM (inactive) | GI50 (UACC-257): > 100 µM (inactive) | GI50 (T47D): > 100 µM (inactive) | GI50 (M14): > 100 µM (inactive) | GI50 (HT-29): > 100 µM (inactive) | GI50 (OVCAR-4): > 100 µM (inactive) | GI50 (NCI-H522): > 100 µM (inactive)

COC(=O)C1=C(O)C(C(=O)OC)[C@]2(O)[C@@H](C(=O)OC)[C@H]1[C@H](C)[C@@H](c1ccccc1)[C@@H]2C(=O)OC (stereo partly specified)
GI50 (NCI-H23): 44.4 µM (inactive) | GI50 (MDA-MB-435): 46.1 µM (inactive) | GI50 (SNB-19): > 100 µM (inactive) | GI50 (K562): 57.4 µM (inactive) | GI50 (A549): 56.4 µM (inactive) | GI50 (SF-539): > 100 µM (inactive) | GI50 (SK-MEL-2): 96.4 µM (inactive) | GI50 (BT-549): 38.8 µM (inactive) | GI50 (MDA-N): 29.2 µM (inactive) | GI50 (SF-268): 70.8 µM (inactive) | GI50 (SW-620): 44.3 µM (inactive) | GI50 (UACC-62): 65.5 µM (inactive) | GI50 (HCT-116): 60.3 µM (inactive) | GI50 (NCI-H460): 69.2 µM (inactive) | GI50 (OVCAR-3): 54 µM (inactive) | GI50 (MOLT-4): 85.9 µM (inactive) | GI50 (OVCAR-8): 54.2 µM (inactive) | GI50 (SK-MEL-5): 36.2 µM (inactive) | GI50 (SK-OV-3): > 100 µM (inactive) | GI50 (SF-295): 78.2 µM (inactive) | GI50 (DU-145): > 100 µM (inactive) | GI50 (RXF 393): > 100 µM (inactive) | GI50 (CCRF-CEM): 23.2 µM (inactive) | GI50 (COLO 205): 77.3 µM (inactive) | GI50 (SNB-75): > 100 µM (inactive) | GI50 (HL-60): 26.4 µM (inactive) | GI50 (MDA-MB-231): > 100 µM (inactive) | GI50 (TK-10): > 100 µM (inactive) | GI50 (786-0): 62.2 µM (inactive) | GI50 (IGROV-1): 16.8 µM (inactive) | GI50 (OVCAR-5): > 100 µM (inactive) | GI50 (LOX IMVI): 53.7 µM (inactive) | GI50 (HCT-15): 57.8 µM | GI50 (HOP-62): > 100 µM (inactive) | GI50 (ACHN): 91.8 µM (inactive) | GI50 (EKVX): 55.7 µM (inactive) | GI50 (SK-MEL-28): > 100 µM (inactive) | GI50 (NCI/ADR-RES): 40.7 µM (inactive) | GI50 (NCI-H226): 78.9 µM (inactive) | GI50 (U-251): > 100 µM (inactive) | GI50 (KM12): > 100 µM (inactive) | GI50 (SN12C): 66.4 µM (inactive) | GI50 (CAKI-1): > 100 µM (inactive) | GI50 (PC-3): 61.5 µM (inactive) | GI50 (Malme-3M): 42.2 µM (inactive) | GI50 (UACC-257): > 100 µM (inactive) | GI50 (T47D): > 100 µM (inactive) | GI50 (M14): 88.1 µM (inactive) | GI50 (HT-29): > 100 µM (inactive) | GI50 (OVCAR-4): 80 µM (inactive) | GI50 (NCI-H522): 18.9 µM (inactive)

COC(=O)C1=C(C(=O)OC)C2(C)C=CC1O2 (stereo unspecified)
GI50 (MCF7): 31.5 µM (inactive) | GI50 (NCI-H23): 17.8 µM (inactive) | GI50 (MDA-MB-435): 19.1 µM (inactive) | GI50 (SNB-19): > 100 µM (inactive) | GI50 (Hs-578T): 26.4 µM (inactive) | GI50 (K562): 4.52 µM (inactive) | GI50 (A549): 99.8 µM (inactive) | GI50 (SF-539): 18.9 µM (inactive) | GI50 (SK-MEL-2): 21.4 µM (inactive) | GI50 (BT-549): 23.1 µM (inactive) | GI50 (SF-268): 31 µM (inactive) | GI50 (SW-620): 4.68 µM (inactive) | GI50 (UACC-62): 17.6 µM (inactive) | GI50 (HCT-116): 10.5 µM (inactive) | GI50 (NCI-H460): > 100 µM (inactive) | GI50 (OVCAR-3): 0.55 µM (active) | GI50 (OVCAR-8): 17.4 µM (inactive) | GI50 (A498): 23.7 µM (inactive) | GI50 (HOP-92): 5.01 µM (inactive) | GI50 (SK-MEL-5): 18.5 µM (inactive) | GI50 (SK-OV-3): > 100 µM (inactive) | GI50 (HCC 2998): 16.2 µM (inactive) | GI50 (DU-145): 17.9 µM (inactive) | GI50 (RXF 393): 20.9 µM (inactive) | GI50 (UO-31): 4.51 µM (inactive) | GI50 (COLO 205): 4.22 µM (inactive) | GI50 (SNB-75): 24.3 µM (inactive) | GI50 (MDA-MB-231): 16.6 µM (inactive) | GI50 (TK-10): 2.49 µM (inactive) | GI50 (RPMI-8226): 1.91 µM (inactive) | GI50 (786-0): 3.78 µM (inactive) | GI50 (IGROV-1): 19.4 µM (inactive) | GI50 (OVCAR-5): 17.6 µM (inactive) | GI50 (LOX IMVI): 16.7 µM (inactive) | GI50 (HCT-15): 16 µM | GI50 (HOP-62): 34.9 µM (inactive) | GI50 (ACHN): 5.78 µM (inactive) | GI50 (EKVX): 22 µM (inactive) | GI50 (SK-MEL-28): 16 µM (inactive) | GI50 (NCI/ADR-RES): 19.6 µM (inactive) | GI50 (NCI-H226): 19.6 µM (inactive) | GI50 (U-251): 18 µM (inactive) | GI50 (SN12C): 17.5 µM (inactive) | GI50 (PC-3): 21.4 µM (inactive) | GI50 (Malme-3M): 2.92 µM (inactive) | GI50 (UACC-257): 15.9 µM (inactive) | GI50 (T47D): 3.44 µM (inactive) | GI50 (M14): 17.3 µM (inactive) | GI50 (HT-29): 15.2 µM (inactive) | GI50 (OVCAR-4): 13.1 µM (inactive) | GI50 (NCI-H522): 2 µM (inactive)

— ChEMBL document CHEMBL1201862, “PubChem BioAssay data set” (2004)
